Laboratory results published in ChEMBL document CHEMBL1201862, “PubChem BioAssay data set” (2004).
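These data come from cells grown in 96-well plates and exposed to compound for 48 hours at five concentrations. The concentration for 50% growth inhibition is given as GI50.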 Activity calls are given as the source filed them. Cut-off read from the data, not from the text of the source: active = GI50 up to about 1.1 µM and inactive = higher. Where a SMILES comes first, the peptide text is derived from it. The star is where a group is joined. Boc = CC(C)(C)OC(=O)*

Key:
Experiment in all cases: DTP human tumour cell line panel, 48 h
COLO 205 = system: COLO 205
EKVX = system: EKVX
HCC 2998 = system: HCC 2998
HCT-116 = system: HCT-116
HCT-15 = system: HCT-15
HOP-92 = system: HOP-92
HT-29 = system: HT-29
LOX IMVI = system: LOX IMVI
Malme-3M = system: Malme-3M
NCI-H460 = system: NCI-H460
OVCAR-3 = system: OVCAR-3
SK-MEL-28 = system: SK-MEL-28
SK-OV-3 = system: SK-OV-3
SW-620 = system: SW-620
UACC-62 = system: UACC-62
NCI-H23 = system: NCI-H23
OVCAR-5 = system: OVCAR-5
SK-MEL-2 = system: SK-MEL-2
SF-539 = system: SF-539
RXF 393 = system: RXF 393

| SMILES | GI50 (COLO 205) | GI50 (EKVX) | GI50 (HCC 2998) | GI50 (HCT-116) | GI50 (HCT-15) [µM] | GI50 (HOP-92) | GI50 (HT-29) | GI50 (LOX IMVI) | GI50 (Malme-3M) | GI50 (NCI-H460) | GI50 (OVCAR-3) | GI50 (SK-MEL-28) | GI50 (SK-OV-3) | GI50 (SW-620) | GI50 (UACC-62) | GI50 (NCI-H23) | GI50 (OVCAR-5) | GI50 (SK-MEL-2) | GI50 (SF-539) | GI50 (RXF 393) |
| --- | --- | --- | --- | --- | --- | --- | --- | --- | --- | --- | --- | --- | --- | --- | --- | --- | --- | --- | --- | --- |
| CC(C)(C)OC(=O)NC(Cc1ccccc1)C(=O)N1CCCC1C(N)=O (stereo not drawn) (Boc-Phe-Pro-NH2; configuration not given here) | > 100 µM (inactive) | > 100 µM (inactive) | > 100 µM (inactive) | > 100 µM (inactive) | > 100 | 1.74 µM (inactive) | > 100 µM (inactive) | > 100 µM (inactive) | > 100 µM (inactive) | > 100 µM (inactive) | > 100 µM (inactive) | > 100 µM (inactive) | > 100 µM (inactive) | > 100 µM (inactive) | > 100 µM (inactive) |  |  |  |  |  |
| NC(=O)CCC(NCc1c2ccccc2[n+]([O-])c2ccccc12)C(=O)O (centres undefined) | > 100 µM (inactive) | > 100 µM (inactive) | > 100 µM (inactive) | 30.8 µM (inactive) | 34.5 |  | > 100 µM (inactive) | 39.1 µM (inactive) | 81.8 µM (inactive) | > 100 µM (inactive) | > 100 µM (inactive) | > 100 µM (inactive) | > 100 µM (inactive) | 52.5 µM (inactive) | 90.8 µM (inactive) | 63 µM (inactive) | > 100 µM (inactive) | 95.9 µM (inactive) |  |  |
| CCOCNC(=O)N(COCC)COCC | > 100 µM (inactive) | > 100 µM (inactive) | > 100 µM (inactive) | > 100 µM (inactive) | > 100 |  | > 100 µM (inactive) | > 100 µM (inactive) | > 100 µM (inactive) |  | 33 µM (inactive) | > 100 µM (inactive) | > 100 µM (inactive) | > 100 µM (inactive) | > 100 µM (inactive) |  | > 100 µM (inactive) | > 100 µM (inactive) | > 100 µM (inactive) |  |
| CCOC(=O)C(Cc1ccc(N=NN(C)C)cc1)NC(=O)CC1c2ccccc2-c2ccccc21 (centres undefined) | 92.7 µM (inactive) | > 100 µM (inactive) | > 100 µM (inactive) | > 100 µM (inactive) | > 100 |  | > 100 µM (inactive) | 85.3 µM (inactive) | > 100 µM (inactive) | 71.6 µM (inactive) | 36.1 µM (inactive) | > 100 µM (inactive) | > 100 µM (inactive) | > 100 µM (inactive) | 42.9 µM (inactive) | > 100 µM (inactive) | > 100 µM (inactive) | > 100 µM (inactive) | > 100 µM (inactive) |  |
| Cc1ccc(N2C(=O)/C(=C3\SC(C(N)=O)=C(N)N3c3ccccc3)SC2=S)cc1 | > 100 µM (inactive) |  | > 100 µM (inactive) | 71 µM (inactive) |  | 12.1 µM (inactive) | 44.3 µM (inactive) |  |  | > 100 µM (inactive) | 90.2 µM (inactive) | > 100 µM (inactive) | 28.2 µM (inactive) | > 100 µM (inactive) | > 100 µM (inactive) | 51.1 µM (inactive) | 2.21 µM (inactive) |  | 22.8 µM (inactive) |  |
| O=C(c1ccccc1)c1nc2ccc(Cl)cc2c2c1CCCO2 | > 100 µM (inactive) | > 100 µM (inactive) | > 100 µM (inactive) | > 100 µM (inactive) | > 100 |  | > 100 µM (inactive) | > 100 µM (inactive) | > 100 µM (inactive) | > 100 µM (inactive) | > 100 µM (inactive) | 33.7 µM (inactive) |  | > 100 µM (inactive) | > 100 µM (inactive) | 72.8 µM (inactive) | > 100 µM (inactive) | > 100 µM (inactive) |  | 56.2 µM (inactive) |
| COc1cc(O)c2c(=O)cc(C3(O)C=CC(=O)C=C3)oc2c1 | 0.463 µM (active) | 1.36 µM (inactive) | 0.535 µM (active) | 0.29 µM (active) | 0.0435 |  | < 0.01 µM (active) | 0.041 µM (active) | < 0.01 µM (active) | 0.675 µM (active) |  | 0.199 µM (active) | 2.37 µM (inactive) | < 0.0417 µM (active) | 0.378 µM (active) | 0.664 µM (active) |  | 0.619 µM (active) | < 0.01 µM (active) | 3.44 µM (inactive) |
